Where a name gives a salt, the structure may show the parent alone.

One assay concerns the target T1, OBP19b (Drosophila melanogaster, UniProt Q9VR95).
T1 construct: mature OBP19b without its native signal peptide
T1 sequence (Q9VR95 34-163): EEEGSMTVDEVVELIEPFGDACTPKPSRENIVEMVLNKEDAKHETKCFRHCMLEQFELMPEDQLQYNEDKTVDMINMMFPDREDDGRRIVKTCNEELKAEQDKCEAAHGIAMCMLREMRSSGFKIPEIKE
Kind of assay: biochemical. The arrangement: competitive NPN probe displacement from recombinant OBP19b, fluorescence 340/415 nm, single concentration, per cent fluorescence displacement. The following applies: NPN displacement; buffer blank 13.4 % not subtracted. On the procedure:
To measure the affinity of OBP19b to ligands, a competitive screening assay was performed at 23 °C using a 96-well microplate format and a Victor3 V microplate reader (PerkinElmer Life Sciences) with 25 and 5 nm slits for excitation and emission, respectively. The excitation wavelength was 340 nm, and the fluorescence emission intensity was recorded at 415 nm. First, a wide screening array involving various ligand compounds was performed. Each well contained 200 µL of 2 µM OBP19b with 4 µM NPN dissolved in 50 mM sodium phosphate buffer at pH 7.5. Fatty acids and bitter compounds were tested in the µM range, whereas sugars, amino acids, vitamins, acids, amines, and isothiocyanate compounds were tested in the mM range. All tested compounds were dissolved in 10% methanol except amino acids, which were dissolved in 50 mM sodium phosphate buffer at pH 7.5. Based on the results of the first screen, the 20 L-amino acids, certain D-amino acids and three nonproteinogenic amino acids were tested by adding 100 µL of a 30 mM ligand stock solution to the microplate wells to obtain a final concentration of 15 mM, and then the solution was mixed. Significant differences using one-way analysis of variance (ANOVA) followed by Dunnett’s test were observed compared to the buffer (***p < 0.001; **p < 0.01). The competitive-binding curves were identified by titration of OBP19b/NPN complex with aliquots of 50 mM ligand to final concentration ranging from 0 to 20 mM. The dissociation constants (Kdapp) of each compound were calculated according to the corresponding IC50 values (the concentration of ligands required to halve the initial fluorescence value of NPN) using the following equation: Kdapp = [IC50]/(1 + […]/KNPN), where [NPN] is the free concentration of NPN. The reported Kdapp values are the average of three measurements performed on three independently experiments.  Fig. 2 Binding properties of OBP19b with a competitive fluorescent assay. The fluorescent displacement of the fluorescent probe NPN by various taste compounds was evaluated by adding aliquots of 50 mM ligand (dissolved in 50 mM sodium phosphate buffer at pH 7.5) to final concentration ranging from 0 to 20 mM. a Fatty acid esters and bitter compounds were tested at a final concentration of 40 µM. b Amino acids, vitamins, acids, amines, trigeminal (isothiocyanate), and sugars compounds were tested at a 15 mM final concentration. c Fluorescent displacement of 20 L-amino acids, including L-phenylalanine (L-Phe: magenta color), L-glutamine (L-Gln: green) and L-alanine (L-Ala: cyan); three nonproteinogenic amino acids L-ornithine (L-Orn), L-canavanine (L-Can), L-citrulline (L-Cit); and three D-amino acids (D-phenylalanine: orange, D-glutamine: blue, and D-alanine: gray). Dots indicate essential amino acids. Statistical differences were determined using one-way ANOVA followed by Dunnett’s test (***p < 0.001; **p < 0.01). d Competitive-binding curves of L-Phe and L-Gln (showing the lowest Kdapp), L-Ala (negative control), and their three corresponding D-isomers. Data values represent the mean ± SEM.
In the case of `C[C@@H](N)C(=O)O` [D-alanine], the inhibition (usually the relative decrease from the control value, in per cent) at 15000 µM is 23.5%.
Take `NC(=O)CC[C@@H](N)C(=O)O` [D-glutamine]: the inhibition at 15000 µM was 22.6%.
Regarding `N[C@H](Cc1ccccc1)C(=O)O` [D-phenylalanine], the inhibition at 15000 µM was 28.3%.
On to `NCC(=O)O` [Glycine], for which the inhibition at 15000 µM was 31.6%.
As for `NC(=O)CC[C@H](N)C(=O)O` [L-Gln, L-glutamine], the inhibition at 15000 µM was determined as 40.7%.
In the case of `N[C@@H](Cc1ccccc1)C(=O)O` [L-Phe, L-phenylalanine], the inhibition at 15000 µM turned out to be 44%.
With `C[C@H](N)C(=O)O` [L-alanine], the inhibition at 15000 µM came to 27.2%.
Regarding `N=C(N)NCCC[C@H](N)C(=O)O` [L-arginine], the inhibition at 15000 µM is 40.5%.
As to `NC(=O)C[C@H](N)C(=O)O` [L-asparagine], the inhibition at 15000 µM was found to be 41.2%.
In the case of `N[C@@H](CC(=O)O)C(=O)O` [L-aspartic acid], the inhibition at 15000 µM came out at 43.4%.
Take `NC(N)=NOCC[C@H](N)C(=O)O` [L-canavanine sulfate salt]: the inhibition at 15000 µM stood at 22.2%.
As to `N[C@@H](CS)C(=O)O` [L-cysteine], the inhibition at 15000 µM was -14.4%.
For `N[C@@H](CCC(=O)O)C(=O)O` [L-glutamic acid], the inhibition at 15000 µM was -0.061%.
As to `N[C@@H](Cc1c[nH]cn1)C(=O)O` [L-histidine], the inhibition at 15000 µM was 7.44%.
On to `CC[C@H](C)[C@H](N)C(=O)O` [L-isoleucine], for which the inhibition at 15000 µM came out at 22.8%.
`CC(C)C[C@H](N)C(=O)O` [L-leucine]: the inhibition at 15000 µM was found to be 22.8%.
As to `NCCCC[C@H](N)C(=O)O` [L-lysine], the inhibition at 15000 µM is 20.2%.
On the same count and under the same terms, in the case of `CSCC[C@H](N)C(=O)O` [L-methionine] it was 37.3%.
As to `NCCC[C@H](N)C(=O)O` [L-ornithine dihydro chloride], the inhibition at 15000 µM worked out at 25.1%.
Turning to `O=C(O)[C@@H]1CCCN1` [L-proline], the inhibition at 15000 µM came out at 20.1%.
Turning to `N[C@@H](CO)C(=O)O` [L-serine], the inhibition at 15000 µM came out at 46.2%.
On the same count and under the same terms, in the case of `C[C@@H](O)[C@H](N)C(=O)O` [L-threonine] it was 17.8%; in that of `N[C@@H](Cc1c[nH]c2ccccc12)C(=O)O` [L-tryptophan], 36.2%; in that of `N[C@@H](Cc1ccc(O)cc1)C(=O)O` [L-tyrosine], -122%.
For the compound `CC(C)[C@H](N)C(=O)O` [L-valine], the inhibition at 15000 µM came out at 16.2%.

The target of the next assay is T1, OBP19b. Nature of the assay: competitive NPN fluorescence displacement, single dose […]. The format is binding.
Conditions: not given
For the compound `COc1ccc2cc3[n+](cc2c1OC)CCc1cc2c(cc1-3)OCO2` [berberine], the “competitive NPN fluorescence displacement, single dose 40 μM” value is “The highest level of fluorescence displacement was induced by papaverine, berberine, 2-phenylethyl isothiocyanate”.
Still for that read-out and setting: the entry for `COc1ccc(Cc2nccc3cc(OC)c(OC)cc23)cc1OC` [papaverine] is “The highest level of fluorescence displacement was induced by papaverine, berberine, 2-phenylethyl isothiocyanate”.

Another assay concerns the target T1, OBP19b. Nature of the assay: direct fluorescence titration with fluorescent probe. It counts as binding.
Conditions: not given
For `c1ccc(Nc2cccc3ccccc23)cc1` [NPN, N-phenyl-1-naphthylamine], the Kd – broadly, the concentration at which binding is half-saturated – turned out to be 4.1 ± 0.9 µM.
